Experimental data published in patent US8431530B2, “Compositions and methods for treating aids or cancer by inhibiting the secretion of microparticles” (priority 2009, dated 2013).

What was measured:
pNL4-3 in Jurkat cells = assay: p24 assay of virion production after pNL4-3 co-transfection; format: cell-based, HIV; conditions: Jurkat; for p24: co-transfected with pNL4-3; for Effect (a/b): p24 of sample / p24 of pNL4-3 + sM1
Experimental: I. Jurkat cells were co-transfected as shown below: (transfection efficiency 30-40% by Chariot Kit):
(§1) pNL4-3 is a clone containing the viral genome. Transfection into cells allows expression of the viral genome and ultimately virion formation and release. The amount of virion production in the extracellular supernatant is measured through p24 protein (viral protein). Samples were collected at 48 hours and 96 hours post-infection.
(§2) At 48 hr postinfection two plates in each group were removed and analyzed by: • a. p24 assay • b. Nef assay • c. Infectivity assay • At 96 hr postinfection the other two plates in each group were removed and analyzed by: • a. p24 assay • b. Nef assay • c. Infectivity assay

[1] = tested on: HIV-1 Nef-GFP secretion, cell line H; assay: HIV-1 Nef-GFP induced secretion, fluorescent plate reader assay; format: cell-based; conditions: HIV-1 Nef-GFP (sM1 column head prints GFP/sM1)
[2] = tested on: HIV-1 Gag-GFP secretion, Jurkat; assay: HIV-1 Gag-GFP induced secretion, fluorescent plate reader assay; format: cell-based; conditions: HIV-1 Gag-GFP (sM1 column head prints GFP/sM1), 0.5 μg peptide, 48 hours
Experimental: (§3) Cells were co-transfected with 0.5 μg of pQBI-HIV Gag-GFP (expresses wild type Gag protein) and either 0.5 μg of HIV-1 Nef SMRwt, SMRmut peptide, sM1 peptide or untransfected controls with Chariot for 48 hours. The conditioned supernatants from these cultures were assayed for GFP fluorescence by plate reader.

[3] = tested on: HIV-1 Gag-GFP secretion, HEK293; assay: as above; format: cell-based; conditions: HEK293, HIV-1 Gag-GFP (sM1 column head prints GFP/sM1), 0.5 μg peptide, 48 hours
Experimental: as §3

[4] = tested on: HIV-1 Gag-GFP secretion, THP-1; assay: as above; format: cell-based; conditions: THP-1, HIV-1 Gag-GFP (sM1 column head prints GFP/sM1), 0.5 μg peptide, 48 hours
Experimental: as §3

[5] = tested on: HIV-1 Gag-GFP secretion, U937; assay: as above; format: cell-based; conditions: U937, HIV-1 Gag-GFP (sM1 column head prints GFP/sM1), 0.5 μg peptide, 48 hours
Experimental: as §3

[6] = tested on: NefGFP release from HEK293 cells; assay: Nef-GFP co-transfection secretion assay, GFP fluorescence of supernatant; format: cell-based; conditions: HEK293, 0.5 μg Nef-GFP + 0.5 μg peptide, Chariot, 48 h; relative to NefGFP+sM1 (100%)
Experimental: Therefore, a set of co-transfection experiments were performed. HEK293 cells were co-transfected with 0.5 μg of pQBI-HIV Nef-GFP (expresses wild type Nef protein) and either 0.5 μg of HIV-1 Nef SMRwt or SMRmut peptide or sM1 peptide (a totally random control peptide, ALAETCQNAWA (SEQ ID NO: 7)) with Chariot. Briefly, the wild-type Nef-GFP clone and the SMR peptides were complexed with Chariot reagent for 30 minutes at RT. The DNA/peptide/Chariot complex was added to HEK293 cells in serum-free media, and the cells were plated. Following incubation for 2 hours at 37° C., media with serum was added to the dish, and the cells were incubated at 37° C. for 48 h. The media was then collected and assayed for secretion using a spectrofluorimeter. The conditioned supernatants from these cultures were assayed for GFP fluorescence by plate reader.

pNL4-3 in 293 cells = assay: p24 assay of virion production after pNL4-3 co-transfection; format: cell-based, HIV; conditions: for p24: co-transfected with pNL4-3; for Effect (a/b): p24 of sample / p24 of pNL4-3 + sM1
Experimental: as §1, §2

[7] = tested on: Gag-GFP + HIV-1wtNef-RFP secretion, THP-1 Monocyte; assay: Gag-GFP secretion in presence of wtNef-RFP, fluorescent plate reader assay; format: cell-based; conditions: Gag-GFP + HIV-1wtNef-RFP + peptide, 48 hours
Experimental: (§4) Cells were transfected with the pQBI-HIV Gag-GFP construct, wtNef-RFP, and either the antagonist (SMRwt peptide), the negative control SMRmt peptide, or a random peptide sM1 with Chariot for 48 hours. The conditioned supernatants from these cultures were assayed for GFP fluorescence by plate reader.

[8] = tested on: Gag-GFP + HIV-1wtNef-RFP secretion, Jurkat; assay: as above; format: cell-based; conditions: Jurkat, Gag-GFP + HIV-1wtNef-RFP + peptide, 48 hours
Experimental: as §4

Mortalin = Mortalin (Homo sapiens, UniProt P38646); conditions: literature; inactivates chaperone function; cited from earlier work
Mortalin, sequence (P38646 47-679): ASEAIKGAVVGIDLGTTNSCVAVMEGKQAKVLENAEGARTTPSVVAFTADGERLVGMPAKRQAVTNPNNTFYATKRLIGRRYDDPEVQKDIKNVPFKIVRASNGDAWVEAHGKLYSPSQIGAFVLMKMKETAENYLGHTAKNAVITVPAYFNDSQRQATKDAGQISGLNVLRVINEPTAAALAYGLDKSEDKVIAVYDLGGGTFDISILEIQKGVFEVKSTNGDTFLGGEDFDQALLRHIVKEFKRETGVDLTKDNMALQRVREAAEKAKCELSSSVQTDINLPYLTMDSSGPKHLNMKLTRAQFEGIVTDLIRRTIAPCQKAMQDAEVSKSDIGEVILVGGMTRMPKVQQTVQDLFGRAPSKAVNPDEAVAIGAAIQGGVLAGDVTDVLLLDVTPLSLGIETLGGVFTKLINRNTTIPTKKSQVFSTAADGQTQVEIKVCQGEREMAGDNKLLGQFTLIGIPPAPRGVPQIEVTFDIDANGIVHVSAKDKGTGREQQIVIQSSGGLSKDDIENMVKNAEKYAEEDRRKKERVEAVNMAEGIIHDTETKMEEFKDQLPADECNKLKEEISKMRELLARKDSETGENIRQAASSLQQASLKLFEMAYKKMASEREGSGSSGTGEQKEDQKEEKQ

human tumor cell lines = conditions: cited from earlier work
[9] = lower doses could be less toxic; cited from earlier work

ALAETCQNAWA [sM1, a totally random control peptide]
p24 (pNL4-3 in Jurkat cells; 48 hr): 0 pg/mL
Effect (a/b) (pNL4-3 in Jurkat cells; 48 hr): 1
p24 (pNL4-3 in Jurkat cells; 96 hr): 30 pg/mL
Effect (a/b) (pNL4-3 in Jurkat cells; 96 hr): 1
Increase in Secretion (relative to untransfected cells), exp condition/UT [1]: 1.05x
Increase in Secretion (relative to untransfected cells), exp condition/UT [2]: 1.09x
Increase in Secretion (relative to untransfected cells), exp condition/UT [3]: 2.05x
Increase in Secretion (relative to untransfected cells), exp condition/UT [4]: 0.85x
Increase in Secretion (relative to untransfected cells), exp condition/UT [5]: 1.05x
release of NefGFP into the extracellular supernatant (GFP fluorescence) [6]: no effect
p24 (pNL4-3 in 293 cells; 293, 48 hr): 45 pg/mL
Effect (a/b) (pNL4-3 in 293 cells; 293, 48 hr): 1.0
p24 (pNL4-3 in 293 cells; 293, 96 hr): 960 pg/mL
Effect (a/b) (pNL4-3 in 293 cells; 293, 96 hr): 1
Secretion relative to untransfected cells ([7]; first line): 43.11x
Secretion relative to untransfected cells ([7]; second line (not explained)): 20.51x
Secretion relative to untransfected cells ([8]; first line): 61.99x
Secretion relative to untransfected cells ([8]; second line (not explained)): 40.36x

CCn1c(=O)/c(=C2\Sc3ccccc3N2C)s/c1=C\c1cccc[n+]1CC.[Cl-] [MKT-077]
binding to Mortalin (Mortalin): binds to the nucleotide-binding domain (NBD) of Mortalin
death of cancer cells (human tumor cell lines; literature (Deocaris et al. 2007)): causes selective death of cancer cells
senescence in human tumor cell lines (human tumor cell lines; literature): inducing senescence
toxicity in clinical trials [9]: renal toxicity
